Source: patent publication US20110064773A1, “PHARMACEUTICAL COMPOSITIONS COMPRISING A THYROID HORMON AND THEIR THERAPEUTIC USE” (UNIVERSITE JOSEPH FOURIER, priority 2007, published 2011)
Entries after “also recorded” stand apart in the source; their conditions may differ.

Tests used:
Assay type in all cases: in vivo, rat
ZDF rats [1] = test: Body composition of ZDF rats
Source text: (§1) At the end of the experimental period, animals were sacrificed by decapitation, in order to avoid the well-known effects of general anesthetics on mitochondrial metabolism. Blood samples were immediately collected and plasma was frozen for subsequent determination of serum metabolites and hormones. Liver, muscles and fat depots were quickly excised and weighed. Liver median lobe was rapidly freeze-clamped. Muscles (plantaris, soleus and gastrocnemius) were frozen in isopentane precooled in liquid nitrogen. Mesenteric fat consisted of adipose tissue surrounding the gastro-intestinal tract from the gastro-oesophageal sphincter to the end of the rectum with special care taken in distinguishing and removing the pancreas. Retroperitoneal fat pad was taken as the distinct depot behind each kidney along the lumbar muscles. Epididymal fat consisted of adipose tissue on top of the epididymis. For subcutaneous depot measurement, a rectangular piece of skin was taken on the right side of each animal from the median line of the abdomen between the spine and the right hip to the first rib. Interscapular brown adipose tissue was removed and dissected free from adjacent muscles and white adipose tissue. The heart ventricles, the right kidney and the spleen were also excised, weighed and frozen.

[2] = tested on: mitochondrial glycerol 3-phosphate dehydrogenase (mGPdH); test: Mitochondrial glycerol 3-phosphate dehydrogenase (mGPdH) activity in liver mitochondria of treated rats; conditions: Wistar rats; for Mitochondrial GPdH activity: 2.5 μg/100 g continuous, 21 days
Description: Mitochondrial glycerol 3-phosphate dehydrogenase (mGPdH) activity was measured on the supernatant of isolated mitochondria after three cycles of freezing-thawing. Forty μg of mitochondria were incubated in a KH2PO4/K2HPO4 buffer (50 mM, pH 7.5) containing 9.3 μM of antimycin A, 5 μM of rotenone and decylubiquinone (50 μM). The reduction of 50 μM dichloro-indophenol (DCIP) by mGPDH was measured spectrophotometrically at 600 nm at 37° C. and enzymatic activity was expressed as μmol·min^−1·mg prot^−1.

GK rats = test: Oral glucose tolerance test (OGTT) and pancreas mass in GK rats; conditions: 2.5 μg/100 g BW
Description: GK rats are diabetic non obese with moderate insulin-resistance, and have lower pancreatic cells than control rats. The pancreatic cells are also less efficient in the insulin secretion.
(§2) The glucose resistance of these animals was tested by an oral glucose tolerance test (OGTT) Animals were fed with 2 g/kg BW of glucose and the Glucose concentration and Insulin concentration in blood were measured.
The glucose concentration (FIG. 40) and insulin concentration (FIG. 41) were then measured for this time.

liver mitochondria = test: Rate of liver mitochondrial oxygen consumption (JO2) of treated Wistar rats; conditions: vs placebo
Description: The major part of the liver and the red part of each quadriceps were rinsed, and chopped into isolation medium (250 mM sucrose, 20 mM Tris-HCl and 1 mM EGTA-Tris, pH 7.4). Nuclei and cell debris were removed by centrifugation at 800 g for 10 min. Mitochondria were then isolated from the supernatant by spinning twice at 8,000 g for 10 minutes. The mitochondrial pellet was resuspended in 0.5 ml of isolation buffer and kept on ice. Mitochondrial protein was measured by the bicinchoninic acid method (Pierce, Rockford, Ill.). The final mitochondrial suspensions were maintained on ice and were used for measurements of oxygen consumption rate.
The rate of mitochondrial oxygen consumption (JO2) was measured at 30° C. in an incubation chamber with a Clark-type O2 electrode filled with 2 ml of incubation medium (125 mM KCl, 10 mM Pi-Tris, 20 mM Tris-HCl, 0.1 mM EGTA, pH 7.2). All measurements were performed using mitochondria (1.0 or 0.2 mg mitochondrial protein/ml for liver and skeletal muscle) incubated either with various substrates: glutamate/malate (5 mM/2.5 mM) and succinate (5 mM), alone or in combination, palmitoyl carnitine (55 μM) and octanoyl carnitine (100 μM). For each substrate, JO2 was recorded in the presence of the substrate alone (State 2) and following the addition of 1 mM ADP (state 3). Oligomycin (1.25 μg/mg protein) was added to the mitochondrial suspension to determine the non-phosphorylating respiratory rate (state 4). The incubation medium was constantly stirred with a built-in electromagnetic stirrer and bar flea. The efficiency of the mitochondrial oxidative phosphorylation was assessed by the state 3/state 4 ratio which measures the degree of control imposed on oxidation by phosphorylation (respiratory control ratio, RCR).

Wistar rats [3] = test: Body composition (adipose tissues, skeletal muscles, brown adipose tissue) of Wistar rats; conditions: for White adipose tissue mass / Brown adipose tissue: 2.5 μg/100 g continuous
Source text: as §1

ZDF rats [4] = test: Plasma lipid profiles of ZDF rats; conditions: 2.5 μg/100 g BW, day of sacrifice
Source text: as §1
Glucose and 3-hydroxybutyrate (3-HB) were measured enzymatically and non esterified fatty acid (NEFA) by colorimetric assay (Wako Chemicals).
Triglycerides and cholesterol were measured by classical routine automate apparatus.
To better understand the lipid metabolism, lipid profiles of free fatty acid (FFA, FIG. 29), triglycerides (FIG. 30), cholesterol (FIG. 31) and high density lipoprotein (HDL, FIG. 32) were analysed.

n0STZ rats = test: Oral glucose tolerance test (OGTT) and pancreas mass in n0STZ rats; conditions: 2.5 μg/100 g BW
Description: N0STZ rats are diabetic non obese with moderate insulin-resistance, and have received an injection of streptozotocine just after the birth, said product killing pancreatic cells.
as §2
The glucose concentration (FIG. 35) and insulin concentration (FIG. 36) were then measured for this time.

Wistar rats [5] = test: De novo hepatic lipogenesis (stable isotopes); conditions: rT3 2.5 μg/100 g BW
Source text: To confirm this point, the rate of endogenous triglyceride synthesis by using stable isotopes has been assessed.

[6] = 2 g/kg glucose, 3 hours, vs placebo
[7] = 5 first minutes following the OGTT
[8] = high dose 250 μg/kg BW/day, various substrates
[9] = 25 μg/100 g BW/day, continuous subcutaneous pellet, 8 days
[10] = 250 μg/kg BW pellet, three weeks, vs placebo, p<0.01
[11] = high dose 25 μg/100 g BW pellet, three weeks, vs placebo
[12] = low dose 2.5 μg/100 g BW, sub-cutaneous pellet, 21 days

Structure (SMILES): N[C@@H](Cc1ccc(Oc2cc(I)c(O)c(I)c2)c(I)c1)C(=O)O [rT3, 3′,5′,3-triiodothyronine]
- Brown adipose tissue mass (ZDF rats [1]; 2.5 μg/100 g BW): increase
- Muscular mass (ZDF rats [1]; 2.5 μg/100 g BW): not affected
- White adipose tissue (ZDF rats [1]; 2.5 μg/100 g BW): seems not to be affected
- Fat mass (photography, FIG. 21) (ZDF rats [1]; low dose of rT3, 21 days, vs placebo): reduced
- Enzymatic activity of mitochondrial glycerol-3-phosphate dehydrogenase ([2]; liver mitochondria, high dose 25 μg/100 g): significantly increased
- Enzymatic activity of mitochondrial glycerol-3-phosphate dehydrogenase (mGPdH) ([2]; liver mitochondria, low dose 2.5 μg/100 g, sub-cutaneous pellet): significantly increased; also recorded: more enhanced
- Mitochondrial GPdH activity ([2]; intra-peritoneal pump): enhanced
- Mitochondrial GPdH activity ([2]; sub-cutaneous pump): enhanced
- AUC of the glucose concentration after OGTT (GK rats; [6]): significantly reduced
- AUC of the insulin concentration after OGTT (GK rats; [6]): largely enhanced
- Kinetic of blood glucose concentration after OGTT (GK rats; [7]): regulate more rapidly
- Kinetic of insulin concentration after OGTT (GK rats; 20 min kinetic): increase
- Pancreas mass (GK rats; vs placebo): increase
- Liver mitochondrial respiratory rate, non-phosphorylating (state 4, oligomycin) (liver mitochondria; [8]): much higher as compared to placebo; also recorded: dose-dependent increase
- Liver mitochondrial respiratory rate, phosphorylating (state 3, ADP) (liver mitochondria; [8]): very significant increased respiratory rate; also recorded: dose-dependent increase
- Liver mitochondrial respiratory rate, non-phosphorylating (state 4) (liver mitochondria; low dose 25 μg/kg BW/day): decreased efficiency; also recorded: dose-dependent increase
- Liver mitochondrial respiratory rate, phosphorylating (state 3) (liver mitochondria; low dose 25 μg/kg BW/day): higher maximal respiratory capacity; also recorded: dose-dependent increase
- White adipose tissue mass (Wistar rats [3]; intra-peritoneal osmotic pump, 21 days): significant reduction
- Brown adipose tissue (Wistar rats [3]; intra-peritoneal pump, 21 days): all treatments were effective
- White adipose tissue mass (Wistar rats [3]; sub-cutaneous osmotic pump, 21 days): significant reduction
- Brown adipose tissue (Wistar rats [3]; sub-cutaneous pump, 21 days): more significantly enhanced
- Muscular mass (Wistar rats [3]; 25 μg/100 g BW, 8 days, whatever the administration (pellet, IP, per os, sc)): unchanged
- White fatty (adipose) tissue mass (Wistar rats [3]; 25 μg/100 g BW, daily intra-peritoneal injection, 8 days): have not effects
- White fatty (adipose) tissue mass (Wistar rats [3]; 25 μg/100 g BW, daily oral administration, 8 days): have not effects
- White fatty (adipose) tissue mass (Wistar rats [3]; 25 μg/100 g BW, daily sub-cutaneous injection, 8 days): have not effects
- Brown adipose tissue mass (Wistar rats [3]; [9]): significantly enhanced
- White fatty (adipose) tissue mass (Wistar rats [3]; [9]): significant white fatty tissue mass reduction
- Epididymal fat mass (Wistar rats [3]; 250 μg/kg BW pellet, three weeks, vs placebo): not different
- Mesenteric fat mass (Wistar rats [3]; [10]): significantly lower
- Retroperitoneal fat mass (Wistar rats [3]; [10]): significantly lower
- Subcutaneous fat mass (Wistar rats [3]; [10]): significantly lower
- Brown adipose tissue mass (Wistar rats [3]; [11]): significantly increased; also recorded: high increase
- Muscle mass (lean body mass) (Wistar rats [3]; [11]): not affected at all; also recorded: do not affect
- Muscle tissues mass (Wistar rats [3]; low dose 2.5 μg/100 g BW): do not affect
- Brown adipose tissue mass (Wistar rats [3]; [12]): intermediate increase; also recorded: more significantly enhanced
- White adipose tissue mass (fat mass) (Wistar rats [3]; [12]): reduces the fat mass with a lower efficiency; also recorded: significant reduction
- Cholesterol level (ZDF rats [4]): not influenced
- FFA in blood (ZDF rats [4]): significantly enhanced
- Triglycerides in blood (ZDF rats [4]): significantly reduced
- AUC of the glucose concentration after OGTT (n0STZ rats; [6]): significantly reduced
- AUC of the insulin concentration after OGTT (n0STZ rats; [6]): largely enhanced
- Kinetic of blood glucose concentration after OGTT (n0STZ rats; [7]): regulate more rapidly
- Kinetic of insulin concentration after OGTT (n0STZ rats; 20 min kinetic): high increase
- Pancreas mass (n0STZ rats; vs placebo): increase
- Endogenous (liver) synthesis of lipids (Wistar rats [5]; day and night, effect maximal during the day): powerful stimulation
- Hepatic lipogenesis, increase (Wistar rats [5]; vs placebo): ~4 fold
